Consider one compound from US10168342B2, “Lipid probes and uses thereof” (THE SCRIPPS RESEARCH INSTITUTE, priority 2015, dated 2019).

SMILES strings stand for the structures.

What all share (assay): isoTOP-ABPP mapping of AEA-DA-modified peptides in Neuro2a cells
Common to all, as to assay type: cell-based

In assay [1] the target is T1, AEA-DA-modified peptides in Neuro2a cells (Mus musculus, UniProt Q8CFE6).
T1 construct: endogenous in cells; host or cells: Neuro2a
The note with it: AEA-DA-modified peptide SLC38A2 Q8CFE6 171-179, SEQ ID NO 105; probe 100 μM, 12 replicates.

In assay [2] the target is T2, AEA-DA-modified peptides in Neuro2a cells (Mus musculus, UniProt Q91WD5).
T2 construct: endogenous in cells; host or cells: Neuro2a
Particulars: AEA-DA-modified peptide NDUFS2 Q91WD5 36-57, SEQ ID NO 67; probe 100 μM, 12 replicates.

The target of assay [3] is T3, AEA-DA-modified peptides in Neuro2a cells (Mus musculus, UniProt P18242).
T3 construct: endogenous in cells; host or cells: Neuro2a
Particulars: AEA-DA-modified peptide CTSD P18242 312-330, SEQ ID NO 27; probe 100 μM, 12 replicates.

Assay [4] concerns the target T4, AEA-DA-modified peptides in Neuro2a cells (Mus musculus, UniProt Q9D8V0).
T4 construct: endogenous in cells; host or cells: Neuro2a
Particulars: AEA-DA-modified peptide HM13 Q9D8V0 62-74, SEQ ID NO 48; probe 100 μM, 12 replicates.

Assay [5] addresses T5, AEA-DA-modified peptides in Neuro2a cells (Mus musculus, UniProt Q9Z2Z6).
T5 construct: endogenous in cells; host or cells: Neuro2a
The note with it: AEA-DA-modified peptide SLC25A20 Q9Z2Z6 179-195, SEQ ID NO 103; probe 100 μM, 12 replicates.

The target in assay [6] is T6, AEA-DA-modified peptides in Neuro2a cells (Mus musculus, UniProt P35505).
T6 construct: endogenous in cells; host or cells: Neuro2a
The note with it: AEA-DA-modified peptide FAH P35505 238-254, SEQ ID NO 40; probe 100 μM, 12 replicates.

Assay [7] addresses T7, AEA-DA-modified peptides in Neuro2a cells (Mus musculus, UniProt Q9DCZ4).
T7 construct: endogenous in cells; host or cells: Neuro2a
Particulars: AEA-DA-modified peptide APOO Q9DCZ4 187-197, SEQ ID NO 9; probe 100 μM, 12 replicates.

Assay [8] addresses T8, AEA-DA-modified peptides in Neuro2a cells (Mus musculus, UniProt P81117).
T8 construct: endogenous in cells; host or cells: Neuro2a
The note with it: AEA-DA-modified peptide NUCB2 P81117 60-73, SEQ ID NO 72; probe 100 μM, 12 replicates.

The target in assay [9] is T9, AEA-DA-modified peptides in Neuro2a cells (Mus musculus, UniProt Q9D771).
T9 construct: endogenous in cells; host or cells: Neuro2a
Particulars: AEA-DA-modified peptide TMEM206 Q9D771 247-260, SEQ ID NO 113; probe 100 μM, 12 replicates.

Assay [10] addresses T10, AEA-DA-modified peptides in Neuro2a cells (Mus musculus, UniProt P47802).
T10 construct: endogenous in cells; host or cells: Neuro2a
The note with it: AEA-DA-modified peptide MTX1 P47802 89-104, SEQ ID NO 63; probe 100 μM, 12 replicates.

In assay [11] the target is T11, AEA-DA-modified peptides in Neuro2a cells (Mus musculus, UniProt Q925I1).
T11 construct: endogenous in cells; host or cells: Neuro2a
The note with it: AEA-DA-modified peptide ATAD3 Q92511 238-246, SEQ ID NO 16; probe 100 μM, 12 replicates.

Assay [12] concerns the target T12, AEA-DA-modified peptides in Neuro2a cells (Mus musculus, UniProt Q8BH04).
T12 construct: endogenous in cells; host or cells: Neuro2a
Particulars: AEA-DA-modified peptide PCK2 Q8BH04 245-262, SEQ ID NO 79; probe 100 μM, 12 replicates.

T4 sequence (Q9D8V0 whole entry): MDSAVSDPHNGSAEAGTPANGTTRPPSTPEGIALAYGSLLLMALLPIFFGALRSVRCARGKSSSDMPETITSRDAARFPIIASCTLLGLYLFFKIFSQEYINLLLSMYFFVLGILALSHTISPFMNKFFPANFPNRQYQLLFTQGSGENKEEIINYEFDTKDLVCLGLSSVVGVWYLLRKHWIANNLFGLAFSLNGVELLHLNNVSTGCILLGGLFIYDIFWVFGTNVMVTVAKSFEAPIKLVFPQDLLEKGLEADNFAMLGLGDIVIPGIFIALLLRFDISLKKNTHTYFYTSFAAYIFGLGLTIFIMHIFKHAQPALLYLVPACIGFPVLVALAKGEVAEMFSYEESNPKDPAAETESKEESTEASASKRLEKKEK
T6 sequence (P35505 whole entry): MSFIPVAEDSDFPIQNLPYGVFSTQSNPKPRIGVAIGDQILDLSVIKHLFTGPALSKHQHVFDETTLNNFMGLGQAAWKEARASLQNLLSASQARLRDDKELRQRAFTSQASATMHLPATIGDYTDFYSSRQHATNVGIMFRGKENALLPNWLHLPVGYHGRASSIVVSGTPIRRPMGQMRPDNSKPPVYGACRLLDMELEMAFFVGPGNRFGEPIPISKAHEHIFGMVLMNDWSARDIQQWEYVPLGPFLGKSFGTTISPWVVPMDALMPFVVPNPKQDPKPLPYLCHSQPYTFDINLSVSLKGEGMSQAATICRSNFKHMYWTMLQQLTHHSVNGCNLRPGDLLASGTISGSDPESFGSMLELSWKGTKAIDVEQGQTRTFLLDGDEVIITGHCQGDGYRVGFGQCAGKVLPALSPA
T12 sequence (Q8BH04 33-640): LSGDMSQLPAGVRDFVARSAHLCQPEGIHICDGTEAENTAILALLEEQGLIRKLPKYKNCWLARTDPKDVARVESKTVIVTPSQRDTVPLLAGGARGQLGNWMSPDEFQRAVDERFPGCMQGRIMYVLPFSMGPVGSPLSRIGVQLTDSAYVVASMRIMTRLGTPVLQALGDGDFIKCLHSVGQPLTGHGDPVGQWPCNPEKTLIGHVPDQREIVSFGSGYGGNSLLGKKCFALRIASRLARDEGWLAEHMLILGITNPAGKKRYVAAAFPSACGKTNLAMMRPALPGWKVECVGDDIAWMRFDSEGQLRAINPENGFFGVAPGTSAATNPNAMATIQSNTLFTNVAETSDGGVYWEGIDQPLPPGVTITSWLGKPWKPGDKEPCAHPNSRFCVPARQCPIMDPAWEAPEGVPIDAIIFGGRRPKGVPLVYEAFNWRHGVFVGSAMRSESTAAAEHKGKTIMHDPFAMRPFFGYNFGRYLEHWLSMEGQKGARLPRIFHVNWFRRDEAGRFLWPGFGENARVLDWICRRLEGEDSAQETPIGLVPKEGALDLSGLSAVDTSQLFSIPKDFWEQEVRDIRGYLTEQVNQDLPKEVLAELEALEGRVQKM
T10 sequence (P47802 whole entry): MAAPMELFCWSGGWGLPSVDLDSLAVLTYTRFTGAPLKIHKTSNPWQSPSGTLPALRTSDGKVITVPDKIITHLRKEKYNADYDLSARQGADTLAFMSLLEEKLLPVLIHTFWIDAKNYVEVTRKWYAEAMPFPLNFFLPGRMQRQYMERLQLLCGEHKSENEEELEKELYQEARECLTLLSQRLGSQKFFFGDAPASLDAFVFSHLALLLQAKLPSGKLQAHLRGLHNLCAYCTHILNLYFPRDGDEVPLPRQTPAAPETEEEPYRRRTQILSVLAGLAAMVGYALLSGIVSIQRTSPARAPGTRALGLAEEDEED
T8 sequence (P81117 25-420): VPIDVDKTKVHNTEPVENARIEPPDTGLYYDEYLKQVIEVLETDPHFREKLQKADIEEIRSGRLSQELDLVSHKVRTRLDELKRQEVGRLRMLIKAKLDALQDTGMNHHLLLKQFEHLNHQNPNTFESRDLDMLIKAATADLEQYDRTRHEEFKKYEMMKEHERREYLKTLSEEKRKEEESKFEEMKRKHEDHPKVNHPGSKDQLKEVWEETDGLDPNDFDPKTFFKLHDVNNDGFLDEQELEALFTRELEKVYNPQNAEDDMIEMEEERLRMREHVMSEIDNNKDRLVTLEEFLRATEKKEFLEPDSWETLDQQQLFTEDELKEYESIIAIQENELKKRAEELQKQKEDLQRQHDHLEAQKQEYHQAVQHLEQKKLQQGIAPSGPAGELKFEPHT
T7 sequence (Q9DCZ4 24-198): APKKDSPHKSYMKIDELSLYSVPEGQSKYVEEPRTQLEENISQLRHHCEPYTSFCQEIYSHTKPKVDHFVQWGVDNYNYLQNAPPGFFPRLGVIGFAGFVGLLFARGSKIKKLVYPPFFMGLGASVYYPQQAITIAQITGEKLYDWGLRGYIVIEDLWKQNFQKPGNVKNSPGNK
T5 sequence (Q9Z2Z6 whole entry): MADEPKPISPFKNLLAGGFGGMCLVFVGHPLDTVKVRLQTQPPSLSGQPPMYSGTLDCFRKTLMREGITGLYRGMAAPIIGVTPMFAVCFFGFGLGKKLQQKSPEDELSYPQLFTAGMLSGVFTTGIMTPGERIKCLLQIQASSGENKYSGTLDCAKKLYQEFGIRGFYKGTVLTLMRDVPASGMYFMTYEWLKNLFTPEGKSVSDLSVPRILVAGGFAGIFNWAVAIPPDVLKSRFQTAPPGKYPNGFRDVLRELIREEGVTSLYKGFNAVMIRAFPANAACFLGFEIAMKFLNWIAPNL
T3 sequence (P18242 65-410): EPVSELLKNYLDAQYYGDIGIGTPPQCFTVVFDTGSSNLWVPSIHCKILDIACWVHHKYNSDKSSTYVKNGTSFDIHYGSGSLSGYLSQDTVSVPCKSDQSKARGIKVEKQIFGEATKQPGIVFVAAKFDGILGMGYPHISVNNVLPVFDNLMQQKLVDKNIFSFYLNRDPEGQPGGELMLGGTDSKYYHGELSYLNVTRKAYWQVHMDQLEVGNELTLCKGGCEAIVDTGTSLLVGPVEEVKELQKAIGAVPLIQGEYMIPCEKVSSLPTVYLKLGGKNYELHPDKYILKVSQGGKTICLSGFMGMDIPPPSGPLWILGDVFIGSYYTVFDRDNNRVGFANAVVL
T2 sequence (Q91WD5 34-463): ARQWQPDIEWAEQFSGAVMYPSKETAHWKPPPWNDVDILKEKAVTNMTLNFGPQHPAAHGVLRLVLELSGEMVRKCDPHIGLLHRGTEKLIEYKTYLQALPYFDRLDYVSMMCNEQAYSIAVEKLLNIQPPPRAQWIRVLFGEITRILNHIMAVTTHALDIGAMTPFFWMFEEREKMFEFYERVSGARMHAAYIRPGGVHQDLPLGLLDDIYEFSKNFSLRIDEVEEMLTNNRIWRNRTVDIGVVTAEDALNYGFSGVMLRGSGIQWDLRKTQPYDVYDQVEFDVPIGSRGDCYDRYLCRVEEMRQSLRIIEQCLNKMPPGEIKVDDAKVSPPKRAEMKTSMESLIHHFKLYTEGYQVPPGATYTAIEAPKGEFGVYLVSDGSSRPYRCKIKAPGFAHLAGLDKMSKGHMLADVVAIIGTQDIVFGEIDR
T1 sequence (Q8CFE6 whole entry): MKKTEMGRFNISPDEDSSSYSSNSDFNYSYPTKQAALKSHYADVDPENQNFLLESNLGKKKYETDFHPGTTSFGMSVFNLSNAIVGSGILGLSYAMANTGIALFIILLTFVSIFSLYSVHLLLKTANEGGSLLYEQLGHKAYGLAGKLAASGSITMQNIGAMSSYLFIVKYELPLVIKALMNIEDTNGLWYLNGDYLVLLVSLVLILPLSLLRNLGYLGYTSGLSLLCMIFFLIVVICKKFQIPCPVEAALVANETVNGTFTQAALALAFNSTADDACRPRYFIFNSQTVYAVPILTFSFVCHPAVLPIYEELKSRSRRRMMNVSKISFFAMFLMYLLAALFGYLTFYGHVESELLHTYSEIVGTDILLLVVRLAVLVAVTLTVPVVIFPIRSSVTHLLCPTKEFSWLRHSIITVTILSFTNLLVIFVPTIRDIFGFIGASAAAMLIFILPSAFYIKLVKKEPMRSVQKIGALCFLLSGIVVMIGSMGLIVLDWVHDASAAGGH
T11 sequence (Q925I1 whole entry): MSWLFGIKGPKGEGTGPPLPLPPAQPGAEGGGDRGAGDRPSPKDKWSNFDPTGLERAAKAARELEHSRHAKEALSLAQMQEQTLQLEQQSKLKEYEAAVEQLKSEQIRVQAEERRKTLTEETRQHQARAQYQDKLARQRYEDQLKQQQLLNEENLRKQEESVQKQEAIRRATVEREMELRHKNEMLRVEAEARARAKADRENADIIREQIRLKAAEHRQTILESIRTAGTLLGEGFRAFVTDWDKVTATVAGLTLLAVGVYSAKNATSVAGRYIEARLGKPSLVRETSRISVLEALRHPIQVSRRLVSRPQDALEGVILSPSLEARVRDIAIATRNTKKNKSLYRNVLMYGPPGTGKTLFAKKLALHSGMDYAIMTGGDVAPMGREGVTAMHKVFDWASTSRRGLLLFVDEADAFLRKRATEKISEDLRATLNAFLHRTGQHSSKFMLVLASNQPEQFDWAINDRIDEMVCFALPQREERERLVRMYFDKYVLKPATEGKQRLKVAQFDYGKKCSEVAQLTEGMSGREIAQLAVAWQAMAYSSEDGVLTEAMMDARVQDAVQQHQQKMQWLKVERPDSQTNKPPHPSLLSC
T9 sequence (Q9D771 whole entry): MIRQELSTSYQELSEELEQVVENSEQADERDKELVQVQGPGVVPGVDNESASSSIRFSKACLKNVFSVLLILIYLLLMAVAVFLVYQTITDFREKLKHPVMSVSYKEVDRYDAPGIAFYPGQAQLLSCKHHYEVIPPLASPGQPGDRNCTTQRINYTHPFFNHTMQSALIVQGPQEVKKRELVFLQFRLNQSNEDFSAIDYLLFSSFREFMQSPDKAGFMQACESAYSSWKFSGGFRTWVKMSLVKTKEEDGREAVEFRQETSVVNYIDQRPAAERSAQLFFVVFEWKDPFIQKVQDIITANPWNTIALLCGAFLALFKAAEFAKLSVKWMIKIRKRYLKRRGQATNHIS

Consider `C#CCCCC1(CC/C=C\C/C=C\C/C=C\CCCC(=O)NCCO)N=N1` [AEA-DA, (5Z,8Z,11Z)-N-(2-hydroxyethyl)-14-(3-(pent-4-yn-1-yl)-3H-diazirin-3-yl)tetradeca-5,8,11-trienamide], for which the Times observed in [1] is given as 4; in assay [2], 3; in [3] it was 12; in assay [4], 12; in [5], 4; in assay [6], 8. The Times observed in assay [7] is 2; in assay [8] it was 4; in assay [9], 2; in assay [10] it was 2; in assay [11] it was 3; in assay [12], 12.
